Laboratory results taken from patent publication US20140336218A1, “ARFORMOTEROL AND TIOTROPIUM COMPOSITIONS AND METHODS FOR USE” (priority 2008, published 2014).

What was measured:
COPD patients [1] = assay: Spirometry (FEV1, FVC) in 2-week randomized, double dummy, parallel group clinical trial; format: in vivo, human
Protocol: (§1) This was a 2-week, prospective, multi-center (34 sites), randomized, modified blind, double dummy, parallel group study designed to evaluate the efficacy and safety of the combination of arformoterol 15 μg BID and tiotropium 18 μg QD (dosed sequentially) versus the individual mono-therapies in the treatment of COPD patients. The study was conducted according to the principles established by the Declaration of Helsinki (see, e.g., World Medical Association Declaration of Helsinki. Recommendations guiding physicians in biomedical research involving human subjects. JAMA 1997; 277:925-926.). Appropriate Institutional Review boards approved the protocol and written informed consent was obtained from the patients.
All patients had non-asthmatic COPD (including emphysema and/or chronic bronchitis). […] They also were required to have a pre-bronchodilator baseline pulmonary function of FEV1>0.7 L, FEV1/FVC ratio of ≦70%, and FEV1≦65% predicted. Patients were excluded if they had life-threatening or unstable respiratory status within 30 days of the screening visit. Patients who changed their prescribed dose or type of COPD medication within 14 days prior to screening or who had ever used tiotropium bromide inhalation powder were excluded.
(§2) Eligible patients were randomized to receive one of three treatments for 14 days: nebulized arformoterol 15 μg (Brovana®, Sepracor Inc., Marlborough, Mass.) BID and placebo DPI QD, nebulized placebo BID and tiotropium 18 μg (Spriva® HandiHaler® Boehringer Ingelheim, Ridgefield, Conn.) DPI QD, or nebulized arformoterol 15 μg BID and tiotropium 18 μg DPI QD. The nebulized drug was administered first using the PARI LC Plus® nebulizer driven by the Duraneb 3000® compressor (Pari: Pari Respiratory Equipment Inc., Midlothian, Va.) at a flow rate of 3.3 L/minute followed (within 5 minutes) by the DPI administration (HandiHaler®). The tiotropium and placebo DPI capsules were identical in size and shape but differed in color.
At week 0 and week 2, medical event calendars and blood samples were collected and vital signs and heart measurements analyzed. At week 0, spirometry was performed pre-morning dose, immediately (within 5 minutes) and at 30 minutes, 1, 2, 4, 6, 8, 10, and 12 hours post-first dose. After the 12-hour pulmonary function test patients self-administered the evening dose of study medication. At week 2, serial spirometry was also performed as at week 0, as well as immediately (within 5 minutes) following the evening dose (administered 12 hours after the morning dose) and 12.5, 13, 14, 16, 23, and 24 hours post-morning dose. Inspiratory capacity was evaluated pre-dose and at 2 hours post-morning dose at week 0, and pre-dose and 2, 11, 14, and 24 hours post-morning dose at week 2. All inspiratory capacity measurements were the mean of acceptable inspiratory capacity maneuvers, two of which were reproducible. Prior to an inspiratory capacity maneuver a patient had to have a stable expiratory level for about 10 breaths. Once the stable level was achieved, at the end of exhalation of a normal breath the patient was asked to make a steady and full inhalation at normal inspiratory flow rates until the lungs were completely full, and then to exhale at a normal rate.
All pulmonary function values used were the highest among the three acceptable maneuvers. The Investigator ensured that all spirometry was performed in accordance with the American Thoracic Society/European Respiratory Society Standardisation of Spirometry guidelines (see, e.g., Miller M R, Hankinson J, Brusasco V, Burgos F, Casaburi R, Coates A, et al. Standardisation of spirometry. Eur Respir J 2005; 26:319-338; herein incorporated in its entirety by reference). Centralized over-reading of spirometry and inspiratory capacity pulmonary function measures were used for quality control.

COPD patients [2] = assay: Rescue medication (levalbuterol MDI) use in 2-week clinical trial; format: in vivo, human
Protocol: as §1
During the study period, the use of LABAs or long-or short-acting anticholinergic bronchodilators (except for the study medication) was prohibited. Use of oral and inhaled corticosteroids was allowed as long as patients were on a stable dosing regimen for at least 14 days prior to study entry that was maintained throughout the study. Patients were required to withhold oral corticosteroids for at least 24 hours prior to pulmonary function testing. Leukotriene modifiers and methylxanthines were not allowed for at least 7-days prior to study entry. Levalbuterol MDI (Xopenex® Sepracor Inc., Marlborough, Mass.) was supplied and used as-needed for rescue medications for acute bronchospasm and acute treatment of COPD symptoms throughout the trial. Patients were instructed to withhold the use of rescue medication for ≧6 hours prior to each clinic visit.
At the screening visit, baseline values were obtained for COPD symptoms, Modified Medical Research Council (MMRC) Dyspnea Scale, heart rate, vital signs, and pulmonary function tests. Medical event calendars and medication logs that were to be completed daily, and rescue medication were also dispensed. The medication logs were used to assess compliance by monitoring the number of UDV/DPI doses taken.
as §2

COPD patients [3] = assay: Adverse events in 2-week clinical trial
Protocol: as §1, §2
Descriptive statistics were calculated by treatment for baseline characteristics and each efficacy parameter. Adverse events were summarized using counts and percentages. All adverse events were coded using MedDRA (Medical Dictionary for Regulatory Activities (see, e.g., MedDRA and MSSO. The medical dictionary for regulatory activities 2008). A COPD exacerbation was pre-defined as an increase in symptoms that necessitated any change in baseline medication other than bronchodilators (e.g. anti-inflammatory agents, antibiotics, supplemental oxygen therapy, etc.) or caused the patient to require additional medical attention (hospitalization, emergency room visit, etc.).

[4] = ITT, change from baseline at week 2
[5] = ITT, week 2, combined therapy versus the mono-therapy
[6] = baseline percent predicted FEV1 <50%, week 2, combined versus the mono-therapy
[7] = baseline percent predicted FEV1 <50%, week 2 from study baseline
[8] = baseline percent predicted FEV1 ≧50%, week 2, combined versus the mono-therapy
[9] = baseline percent predicted FEV1 ≧50%, week 2 from study baseline
[10] = <50% percent predicted FEV1, changes in levalbuterol MDI use at week 2
[11] = ITT, week 2, change from baseline, levalbuterol rescue
[12] = ≧50% percent predicted FEV1, changes in levalbuterol MDI use at week 2

COc1ccc(C[C@@H](C)NC[C@H](O)c2ccc(O)c(NC=O)c2)cc1 [Arformoterol]
mean FEV1 improvement 2-hours after the evening dose (COPD patients [1]; 2 hours after evening dose): ~182 mL
mean FEV1 improvement 2-hours after the morning dose (COPD patients [1]; 2 hours after morning dose): approximately 213 mL
Peak Change in FEV1 over 12 hours, mean (SD) (COPD patients [1]; [4]): 0.27 (0.21) L
Peak change in FVC over 12 hours, mean (SD) (COPD patients [1]; [4]): 0.48 (0.37) L
Change in FEV1AUC0-24, mean (SD) (COPD patients [1]; ITT, change from baseline at week 2, time normalized): 0.10 (0.21) L
Difference between combined therapy and mono-therapies in change in FEV1AUC0-24, LS mean (COPD patients [1]; [5]): 0.12 L
Difference between combined therapy and mono-therapies in change in trough FEV1, LS mean (COPD patients [1]; [5]): 0.07 L
Difference between combined therapy and mono-therapies in peak change in FEV1 over 12 hours, LS mean (COPD patients [1]; [5]): 0.11 L
Difference between combined therapy and mono-therapies in peak change in FVC over 12 hours, LS mean (COPD patients [1]; [5]): 0.12 L
Change in trough FEV1, mean (SD) (COPD patients [1]; ITT, week 2, trough = 24 hour time point after morning dose): 0.09 (0.23) L
Difference between combined therapy and mono-therapies in change in FEV1AUC0-24, LS mean (COPD patients [1]; [6]): 0.11 L
Difference between combined therapy and mono-therapies in peak change in FEV1 over 12 hours, LS mean (COPD patients [1]; [6]): 0.11 L
Difference between combined therapy and mono-therapies in peak change in FVC over 12 hours, LS mean (COPD patients [1]; [6]): 0.15 L
Difference between combined therapy and mono-therapies in trough FEV1, LS mean (COPD patients [1]; [6]): 0.08 L
Peak Change in FEV1 over 12 hours, mean (SD) (COPD patients [1]; [7]): 0.31 (0.23) L
Peak change in FVC over 12 hours, mean (SD) (COPD patients [1]; [7]): 0.56 (0.41) L
Trough FEV1 (change in FEV1 at 24 hours post-dose), mean (SD) (COPD patients [1]; [7]): 0.13 (0.23) L
Change in FEV1AUC0-24, mean (SD) (COPD patients [1]; baseline percent predicted FEV1 <50%, week 2 from study baseline (pre-dose week 0)): 0.15 (0.22) L
Difference between combined therapy and mono-therapies in change in FEV1AUC0-24, LS mean (COPD patients [1]; [8]): 0.14 L
Difference between combined therapy and mono-therapies in peak change in FEV1 over 12 hours, LS mean (COPD patients [1]; [8]): 0.10 L
Difference between combined therapy and mono-therapies in peak change in FVC over 12 hours, LS mean (COPD patients [1]; [8]): 0.08 L
Difference between combined therapy and mono-therapies in trough FEV1, LS mean (COPD patients [1]; [8]): 0.05 L
Peak Change in FEV1 over 12 hours, mean (SD) (COPD patients [1]; [9]): 0.22 (0.17) L
Peak change in FVC over 12 hours, mean (SD) (COPD patients [1]; [9]): 0.34 (0.25) L
Trough FEV1 (change in FEV1 at 24 hours post-dose), mean (SD) (COPD patients [1]; [9]): 0.02 (0.21) L
Change in FEV1AUC0-24, mean (SD) (COPD patients [1]; baseline percent predicted FEV1 ≧50%, week 2 from study baseline (pre-dose week 0)): 0.03 (0.19) L
mean improvement in peak FVC (COPD patients [1]; from baseline after 2 weeks of treatment): 48 mL
LS mean (±SE) peak improvement in FEV1 from visit pre-dose (COPD patients [1]; from visit pre-dose): 0.19 L
Number of actuations per day, mean (SD) (COPD patients [2]; [10]): −2.1 (2.3) actuations per day
Used levalbuterol, n (%) (COPD patients [2]; [10]): 45 (95.7) n (%)
Used levalbuterol, n (%) (COPD patients [2]; ITT, week 2): 40 (52.6) n (%)
Number of actuations per day, mean (SD) (COPD patients [2]; [11]): −1.8 (2.2) actuations per day
Number of days per week, mean (SD) (COPD patients [2]; [11]): −2.1 (2.6) days per week
Number of actuations per day, mean (SD) (COPD patients [2]; [12]): −1.3 (2.0) actuations per day
Used levalbuterol, n (%) (COPD patients [2]; [12]): 26 (90)^ n (%)
Any adverse event, n (%) (COPD patients [3]; ITT, 2 weeks of treatment): 19 (25.0) n (%)
COPD exacerbations (COPD patients [3]; ITT, 2 weeks of treatment): 3 (3.9) n (%)
Discontinued due to adverse events, n (%) (COPD patients [3]; ITT, 2 weeks of treatment): 2 (2.6) n (%)
Overall cardiovascular adverse events, n (%) (COPD patients [3]; ITT, 2 weeks of treatment): 2 (2.6) n (%)
Serious adverse events, n (%) (COPD patients [3]; ITT, 2 weeks of treatment): 1 (1.3) n (%)
patients reporting a serious adverse event (COPD patients [3]; small intestinal obstruction): one
